From ChEMBL document CHEMBL1201862, “PubChem BioAssay data set” (2004)
Active and inactive are the calls of the source.

Legend:
[1] = Luminescence Cell-Based Dose Retest to Confirm Inhibitors of Cancer Stem Cells. [Related pubchem assays (depositor defined):AID2717, AID2721]; assay type: functional; details: Homo sapiens
[2] = cytotoxicity in HMLE control line with eGFP shRNA, dose response, counter-screen for HMLE_sh_ECad selective toxicity project, cell-based, HMLE_sh_eGFP, luminescence (AID 463074); assay type: functional, Homo sapiens;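 also: HMLE human mammary epithelial cells expressing control shRNA against eGFP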
[3] = cytotoxicity dependent on PAX8, dose response, cell-based, plate reader, dry powder (AID 743049); assay type: functional
[4] = tested on: Streptococcus; test: Group A Streptococcus viability loss, dose response, counter-screen for streptokinase expression inhibitor project, luminescence, BacTiterGlo (AID 1915); assay type: functional, organism-based;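 also: potency for reduction of bacterial viability or growth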
[5] = Shn3 3'UTR reporter inhibitors, dose response, cell-based, Clone20 osteoblasts, firefly luciferase, cherry-picked (AID 624132); assay type: functional;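 also: firefly luciferase luminescence from reporter carrying the Shn3 3'UTR in osteoblasts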
[6] = insulin promoter down-regulators in MIN6 cells, imaging, high-content screening, mouse beta cells (AID 1628); assay type: functional
[7] = molecular target: T1, Type-1 angiotensin II receptor (Homo sapiens, UniProt P30556); test: AT1 receptor agonists, dose response, selectivity assay for APJ receptor agonist project, cell-based, uHTS hits (AID 488865); assay type: functional;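 also: beta-arrestin recruitment to AT1 measured by enzyme fragment complementation luminescence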
T1 sequence (P30556 whole entry): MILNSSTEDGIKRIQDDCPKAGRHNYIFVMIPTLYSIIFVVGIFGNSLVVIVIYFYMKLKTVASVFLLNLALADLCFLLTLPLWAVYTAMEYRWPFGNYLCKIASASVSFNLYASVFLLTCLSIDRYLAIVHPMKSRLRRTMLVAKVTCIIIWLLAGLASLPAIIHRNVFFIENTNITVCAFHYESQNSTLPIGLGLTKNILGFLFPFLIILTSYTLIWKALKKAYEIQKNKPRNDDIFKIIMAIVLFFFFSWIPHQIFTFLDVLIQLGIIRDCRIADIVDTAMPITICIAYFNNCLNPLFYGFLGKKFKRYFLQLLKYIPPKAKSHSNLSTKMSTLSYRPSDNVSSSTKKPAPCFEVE

[8] = cytotoxicity in OVCAR4 cells, dose response, cytotoxicity control for PAX8 inhibitor project, cell-based, plate reader, dry powder, SA11 (AID 743150); assay type: functional; details: OVCAR-4
[9] = cytotoxicity in COV434 cells, dose response, cytotoxicity control for PAX8 inhibitor project, cell-based, plate reader, dry powder, SA7 (AID 743145); assay type: functional
[10] = cytotoxicity toward NIH3T3 fibroblasts, dose response, counter-screen, cell-based, ATP luminescence, mouse fibroblasts (AID 2010); assay type: functional;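 also: cells exposed to compound for about 90 hours before reading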
[11] = HepG2 cell cytotoxicity, dose response, cytotoxicity control for Shn3 inhibitor project, CellTiter-Glo, cherry-picked (AID 624134); assay type: functional, cell-based
[12] = A2780 ovarian cancer cell cytotoxicity, dose response, cytotoxicity control, plate reader, dry powder samples (AID 743046); assay type: functional, cell-based
[13] = control 3'UTR Renilla luciferase suppression, dose response, counter-screen for Shn3 inhibitor project, cell-based, Clone20-Shn3RL, cherry-picked (AID 624133); assay type: functional
[14] = cytotoxicity in COV362 ovarian cancer cells, dose response, cytotoxicity control for PAX8 inhibitor project, cell-based, plate reader, dry powder, SA12 (AID 743144); assay type: functional
[15] = cytotoxicity in OV-90 ovarian cancer cells, dose response, PAX8 inhibitor project, cell-based, plate reader, dry powder, SA8 (AID 743149); assay type: functional
[16] = cells; assay type: functional, cell-based
[17] = molecular target: T2, Probable nicotinate-nucleotide adenylyltransferase (Staphylococcus aureus (strain N315), UniProt P65502); assay type: functional, Staphylococcus aureus subsp. aureus N315;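 as to IC50 Mean: confirmatory dose-response retesting of NadD inhibitor hits first found in an ultra-high-throughput screen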
[18] = tested on: Escherichia coli; test: microbe, parasite or virus in culture
[19] = molecular target: Paired box protein Pax-8 (Homo sapiens, UniProt Q06710); test: inhibitors of PAX8-driven TPO luciferase reporter, dose response, RMG-I cells, cherry-pick (AID 687027); assay type: functional, cell-based;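 also: luciferase reporter driven by Pax8 target thyroperoxidase promoter measured by SteadyGlo luminescence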
[20] = PAX5 activity inhibitors, dose response, selectivity assay for PAX8 inhibitor project, cell-based, plate reader, dry powder samples (AID 743047); assay type: functional;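 also: HEK293 cells carrying a Pax5 driven CD19 promoter luciferase reporter; potency of inhibitors that lower reporter luminescence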
[21] = NIH:OVCAR-3 ovarian cancer cell cytotoxicity, dose response, PAX8 inhibitor project, plate reader, dry powder samples (AID 743044); assay type: functional, cell-based
[22] = molecular target: T2, Probable nicotinate-nucleotide adenylyltransferase; assay type: functional, Staphylococcus aureus subsp. aureus N315; details: read-out: IC50_Mean
[23] = PAX2 cell-based inhibition, dose response, selectivity assay for PAX8 inhibitor project, plate reader, dry powder samples (AID 743048); assay type: functional;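 also: HEK293 cells carrying a WT1 promoter luciferase reporter driven by expressed Pax2; potency is for inhibition of Pax2 driven reporter signal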
[24] = IOSE-T80 ovarian epithelial cell cytotoxicity, dose response, cytotoxicity control for PAX8 inhibitor project, plate reader, dry powder samples (AID 743045); assay type: functional, cell-based
[25] = tested on: Streptococcus sp. 'group A'; test: growth inhibition of control SK(-) GAS strain, dose response, counter-screen for streptokinase expression inhibitor project, luminescence, kanamycin, BacTiterGlo, confirmation (AID 1900); assay type: functional, organism-based
[26] = cytotoxicity in MIN6 insulinoma cells, dose response, cytotoxicity control, cell-based, mouse insulinoma (AID 2122); assay type: functional;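 also: confirmatory high-throughput counterscreen run to flag cytotoxic compounds; mouse MIN-6 beta cells carrying an insulin promoter eGFP reporter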
[27] = molecular target: T3, Streptokinase A (Streptococcus pyogenes serotype M1, UniProt P10520); test: S. pyogenes streptokinase expression inhibitors, potency, dose response, plasminogen activation absorbance, OD405 (AID 1914); assay type: functional, Streptococcus pyogenes M1 GAS;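 also: secreted streptokinase activity via plasminogen activation per viability signal from cell pellet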
T3 sequence (P10520 whole entry): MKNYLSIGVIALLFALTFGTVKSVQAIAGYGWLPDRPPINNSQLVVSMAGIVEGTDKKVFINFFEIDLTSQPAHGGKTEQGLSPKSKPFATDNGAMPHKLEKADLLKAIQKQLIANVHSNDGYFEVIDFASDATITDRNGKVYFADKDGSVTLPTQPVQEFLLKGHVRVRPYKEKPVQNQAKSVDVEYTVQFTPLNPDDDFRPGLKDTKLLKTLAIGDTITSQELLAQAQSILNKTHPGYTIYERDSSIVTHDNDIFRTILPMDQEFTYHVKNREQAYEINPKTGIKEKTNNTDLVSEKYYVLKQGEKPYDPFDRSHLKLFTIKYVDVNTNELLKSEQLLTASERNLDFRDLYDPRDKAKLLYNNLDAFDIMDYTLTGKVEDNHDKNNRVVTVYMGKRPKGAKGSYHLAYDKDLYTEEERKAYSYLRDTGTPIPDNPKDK

[28] = IGROV1 ovarian cancer cell cytotoxicity, dose response, PAX8 inhibitor project, plate reader, dry powder samples (AID 743043); assay type: functional, cell-based; details: IGROV-1
[29] = inhibitors of intracellular T. cruzi replication, confirmation, NIH3T3 host cells, beta-gal luminescence (AID 2044); assay type: functional, cell-based;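 also: intracellular parasites grown in NIH/3T3 mouse fibroblasts as host cells; luminescent beta-galactosidase reporter signal from transgenic T. cruzi replicating inside host cells; inhibitors lower the luminescence signal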
[30] = tested on: INS1; test: beta cell apoptosis inhibitors, cytokine rescue, dose response, luminescence, retest (AID 449756); assay type: functional, cell-based; details: Rattus norvegicus;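 also: cell death triggered by IL-1 beta plus TNF-alpha plus IFN-gamma mixture; protective hits raise ATP signal compared with cytokine alone wells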
[31] = cells; assay type: functional, cell-based; remark: listed apart in the source
[32] = molecular target: Photoreceptor-specific nuclear receptor (Homo sapiens, UniProt Q9Y5X4); test: NR2E3 inverse agonists, dose response, biochemical, TR-FRET (AID 463256); assay type: functional
[33] = molecular target: Peroxisome proliferator-activated receptor gamma/Nuclear receptor corepressor 2 (Homo sapiens, UniProt P37231+Q9Y618); test: Counterscreen for NR2E3 inverse agonists: TR-FRET-based biochemical high throughput dose response assay to identify inverse agonists of the interaction between peroxisome proliferator-activated receptor gamma (PPARg) and nuclear receptor co-repressor 2 (NCOR2).; assay type: functional
[34] = molecular target: ORF 73 (Human herpesvirus 8, UniProt O40947); test: inhibitors of C-LANA binding to LBS DNA, dose response, biochemical, fluorescence polarization, cherry-picked samples (AID 504725); design: species or system Human gammaherpesvirus 8;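 also: fluorescence polarization of a labeled DNA duplex reporting LANA DNA binding; potency is for inhibitors that block LANA binding to the DNA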
[35] = molecular target: Keap1/Nrf2 (Homo sapiens, UniProt Q14145); test: Keap1-Nrf2 protein-protein interaction inhibitors, dose response, biochemical, fluorescence polarization, cherry-picked samples (AID 588683)
[36] = molecular target: T4, Zinc finger protein mex-5 (Caenorhabditis elegans, UniProt Q9XUB2); test: MEX-5/TCR-2 RNA interaction inhibitors, dose response, biochemical, C. elegans, fluorescence polarization (AID 1960)
T4 sequence (Q9XUB2 whole entry): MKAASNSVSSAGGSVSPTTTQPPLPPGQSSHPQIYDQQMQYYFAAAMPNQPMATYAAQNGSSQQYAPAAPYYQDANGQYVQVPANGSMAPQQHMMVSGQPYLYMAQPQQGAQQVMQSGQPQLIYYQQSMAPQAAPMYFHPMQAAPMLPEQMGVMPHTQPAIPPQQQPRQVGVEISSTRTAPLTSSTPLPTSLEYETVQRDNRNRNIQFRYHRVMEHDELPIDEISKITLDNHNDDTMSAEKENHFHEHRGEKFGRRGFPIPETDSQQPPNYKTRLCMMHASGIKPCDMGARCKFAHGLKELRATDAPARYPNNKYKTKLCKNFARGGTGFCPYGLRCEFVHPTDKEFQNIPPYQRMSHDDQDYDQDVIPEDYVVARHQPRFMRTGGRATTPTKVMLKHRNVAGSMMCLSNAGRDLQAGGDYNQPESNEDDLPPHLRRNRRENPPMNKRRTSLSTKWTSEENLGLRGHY

[37] = molecular target: Luciferin 4-monooxygenase (Photinus pyralis, UniProt P08659); test: firefly luciferase enzyme inhibitors, dose response, biochemical, luminescence (AID 1891)
[38] = molecular target: T5, RNA-binding protein pos-1 (Caenorhabditis elegans, UniProt G5EF15); test: inhibitors of POS-1/mex-3 RNA binding, dose response, biochemical, fluorescence polarization (AID 1964);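 also: purified POS-1 fused to maltose binding protein made in E. coli; potency of compounds blocking POS-1 binding to fluorescent RNA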
T5 sequence (G5EF15 whole entry): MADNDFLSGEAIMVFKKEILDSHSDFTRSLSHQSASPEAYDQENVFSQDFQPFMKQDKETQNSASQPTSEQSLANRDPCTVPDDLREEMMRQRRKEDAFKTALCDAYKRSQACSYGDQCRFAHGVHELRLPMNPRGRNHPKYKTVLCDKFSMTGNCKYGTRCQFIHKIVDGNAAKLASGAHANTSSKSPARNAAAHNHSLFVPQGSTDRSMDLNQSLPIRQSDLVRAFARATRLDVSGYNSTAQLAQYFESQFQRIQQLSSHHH

[39] = molecular target: T6, Heat shock factor protein 1 (Mus musculus, UniProt P38532); test: HSF1 potentiators in luciferase reporter cells, confirmation, cell-based, NIH3T3, luminescence, dose retest (AID 435004); assay type: functional;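 also: stress induced by proteasome inhibitor MG132 added 30 min after compound; luciferase reporter driven by HSF1 response element in NIH3T3 cells; actives raise luminescence as potentiators of the MG132 stress response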
T6 sequence (P38532 whole entry): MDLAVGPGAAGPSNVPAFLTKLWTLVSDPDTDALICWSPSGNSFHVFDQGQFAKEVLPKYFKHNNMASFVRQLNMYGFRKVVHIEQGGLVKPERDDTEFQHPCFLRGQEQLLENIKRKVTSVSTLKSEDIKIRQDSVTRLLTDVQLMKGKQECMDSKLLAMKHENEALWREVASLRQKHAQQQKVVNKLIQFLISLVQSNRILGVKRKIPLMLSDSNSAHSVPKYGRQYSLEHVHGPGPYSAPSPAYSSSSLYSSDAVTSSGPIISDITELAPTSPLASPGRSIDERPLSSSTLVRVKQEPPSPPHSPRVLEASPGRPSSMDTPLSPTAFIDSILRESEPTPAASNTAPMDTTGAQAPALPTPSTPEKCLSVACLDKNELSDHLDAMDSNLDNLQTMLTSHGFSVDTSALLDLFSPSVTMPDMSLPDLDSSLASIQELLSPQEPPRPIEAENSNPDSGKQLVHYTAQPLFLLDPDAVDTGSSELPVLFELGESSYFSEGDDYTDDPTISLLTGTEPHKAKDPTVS

T2 sequence (P65502 whole entry): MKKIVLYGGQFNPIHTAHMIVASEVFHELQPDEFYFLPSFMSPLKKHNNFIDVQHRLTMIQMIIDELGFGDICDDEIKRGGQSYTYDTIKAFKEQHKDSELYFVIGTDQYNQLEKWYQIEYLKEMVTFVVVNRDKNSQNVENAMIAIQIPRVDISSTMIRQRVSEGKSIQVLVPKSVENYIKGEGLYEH
Peroxisome proliferator-activated receptor gamma/Nuclear receptor corepressor 2, sequence (P37231 whole entry): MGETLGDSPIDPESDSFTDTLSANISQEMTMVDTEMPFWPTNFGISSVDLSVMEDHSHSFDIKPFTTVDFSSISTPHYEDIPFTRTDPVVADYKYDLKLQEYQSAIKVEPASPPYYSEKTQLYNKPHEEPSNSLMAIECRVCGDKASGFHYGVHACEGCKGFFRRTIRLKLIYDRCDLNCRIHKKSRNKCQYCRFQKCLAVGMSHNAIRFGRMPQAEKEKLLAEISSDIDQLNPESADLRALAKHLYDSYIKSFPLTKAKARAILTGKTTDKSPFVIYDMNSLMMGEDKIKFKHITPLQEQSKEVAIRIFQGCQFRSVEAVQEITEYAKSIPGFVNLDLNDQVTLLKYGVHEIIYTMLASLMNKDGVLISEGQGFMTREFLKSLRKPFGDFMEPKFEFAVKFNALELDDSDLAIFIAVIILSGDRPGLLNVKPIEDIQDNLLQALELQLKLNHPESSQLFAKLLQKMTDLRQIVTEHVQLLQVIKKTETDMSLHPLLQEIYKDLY
Peroxisome proliferator-activated receptor gamma/Nuclear receptor corepressor 2, sequence (Q9Y618 whole entry): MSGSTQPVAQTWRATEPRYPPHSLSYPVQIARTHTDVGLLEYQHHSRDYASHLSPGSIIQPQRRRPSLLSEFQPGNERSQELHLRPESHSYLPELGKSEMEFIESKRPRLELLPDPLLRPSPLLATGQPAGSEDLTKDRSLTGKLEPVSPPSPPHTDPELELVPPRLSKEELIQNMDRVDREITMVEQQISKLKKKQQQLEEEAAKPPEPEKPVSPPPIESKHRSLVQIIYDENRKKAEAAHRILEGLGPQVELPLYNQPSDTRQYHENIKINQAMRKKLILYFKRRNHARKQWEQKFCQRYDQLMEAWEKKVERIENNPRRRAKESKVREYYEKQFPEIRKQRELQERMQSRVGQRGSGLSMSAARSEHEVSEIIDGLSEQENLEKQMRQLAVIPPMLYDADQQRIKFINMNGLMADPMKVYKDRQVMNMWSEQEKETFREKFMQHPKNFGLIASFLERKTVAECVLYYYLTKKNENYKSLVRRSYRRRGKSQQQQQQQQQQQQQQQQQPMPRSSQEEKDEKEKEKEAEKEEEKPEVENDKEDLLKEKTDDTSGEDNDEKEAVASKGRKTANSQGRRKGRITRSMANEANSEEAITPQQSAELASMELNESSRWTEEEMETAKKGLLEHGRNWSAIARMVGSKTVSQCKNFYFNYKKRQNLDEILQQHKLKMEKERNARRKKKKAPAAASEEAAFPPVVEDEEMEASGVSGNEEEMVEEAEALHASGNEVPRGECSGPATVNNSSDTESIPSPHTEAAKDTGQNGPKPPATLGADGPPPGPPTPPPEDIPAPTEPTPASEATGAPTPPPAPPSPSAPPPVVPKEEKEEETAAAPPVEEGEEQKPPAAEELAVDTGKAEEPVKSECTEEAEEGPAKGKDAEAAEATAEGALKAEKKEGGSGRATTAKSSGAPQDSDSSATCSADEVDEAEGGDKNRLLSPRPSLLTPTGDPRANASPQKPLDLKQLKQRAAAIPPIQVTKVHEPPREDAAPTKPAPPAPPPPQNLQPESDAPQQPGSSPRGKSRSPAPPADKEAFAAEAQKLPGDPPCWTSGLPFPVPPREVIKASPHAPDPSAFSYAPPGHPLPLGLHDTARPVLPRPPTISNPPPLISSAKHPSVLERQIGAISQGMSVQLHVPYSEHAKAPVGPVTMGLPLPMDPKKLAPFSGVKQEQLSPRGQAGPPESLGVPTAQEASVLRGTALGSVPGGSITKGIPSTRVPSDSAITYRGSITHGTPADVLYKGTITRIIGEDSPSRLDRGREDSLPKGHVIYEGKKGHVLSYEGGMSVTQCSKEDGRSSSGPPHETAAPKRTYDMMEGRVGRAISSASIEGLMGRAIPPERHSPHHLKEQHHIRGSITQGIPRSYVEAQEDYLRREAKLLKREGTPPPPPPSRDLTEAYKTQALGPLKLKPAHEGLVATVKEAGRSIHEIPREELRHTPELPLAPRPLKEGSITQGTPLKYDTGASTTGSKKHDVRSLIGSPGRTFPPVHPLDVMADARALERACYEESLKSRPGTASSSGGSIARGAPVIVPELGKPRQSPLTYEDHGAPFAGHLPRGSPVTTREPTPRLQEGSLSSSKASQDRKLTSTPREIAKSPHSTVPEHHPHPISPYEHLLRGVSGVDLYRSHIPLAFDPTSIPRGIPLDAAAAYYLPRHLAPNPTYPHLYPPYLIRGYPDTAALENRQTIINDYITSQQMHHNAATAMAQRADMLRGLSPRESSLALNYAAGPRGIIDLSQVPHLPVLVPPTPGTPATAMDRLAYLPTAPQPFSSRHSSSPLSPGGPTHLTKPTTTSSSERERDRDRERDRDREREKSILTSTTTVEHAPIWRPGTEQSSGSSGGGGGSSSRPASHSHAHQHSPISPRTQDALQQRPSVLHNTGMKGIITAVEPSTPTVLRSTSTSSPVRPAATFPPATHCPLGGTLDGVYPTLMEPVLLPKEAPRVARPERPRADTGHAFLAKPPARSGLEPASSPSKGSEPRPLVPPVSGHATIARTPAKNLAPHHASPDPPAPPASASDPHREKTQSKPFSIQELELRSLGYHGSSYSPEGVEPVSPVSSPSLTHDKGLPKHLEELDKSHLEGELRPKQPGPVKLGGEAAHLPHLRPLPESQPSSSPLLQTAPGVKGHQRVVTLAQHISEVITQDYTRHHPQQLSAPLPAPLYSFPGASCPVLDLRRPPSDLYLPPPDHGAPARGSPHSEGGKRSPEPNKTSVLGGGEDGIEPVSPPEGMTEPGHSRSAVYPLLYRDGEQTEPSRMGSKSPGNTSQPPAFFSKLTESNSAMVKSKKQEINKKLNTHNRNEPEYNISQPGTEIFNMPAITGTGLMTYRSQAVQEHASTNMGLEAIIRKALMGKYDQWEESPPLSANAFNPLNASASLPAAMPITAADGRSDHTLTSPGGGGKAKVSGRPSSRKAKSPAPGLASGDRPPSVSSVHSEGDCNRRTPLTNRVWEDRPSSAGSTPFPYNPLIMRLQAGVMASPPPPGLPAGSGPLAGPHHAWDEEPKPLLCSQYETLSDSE
Paired box protein Pax-8, sequence (Q06710 whole entry): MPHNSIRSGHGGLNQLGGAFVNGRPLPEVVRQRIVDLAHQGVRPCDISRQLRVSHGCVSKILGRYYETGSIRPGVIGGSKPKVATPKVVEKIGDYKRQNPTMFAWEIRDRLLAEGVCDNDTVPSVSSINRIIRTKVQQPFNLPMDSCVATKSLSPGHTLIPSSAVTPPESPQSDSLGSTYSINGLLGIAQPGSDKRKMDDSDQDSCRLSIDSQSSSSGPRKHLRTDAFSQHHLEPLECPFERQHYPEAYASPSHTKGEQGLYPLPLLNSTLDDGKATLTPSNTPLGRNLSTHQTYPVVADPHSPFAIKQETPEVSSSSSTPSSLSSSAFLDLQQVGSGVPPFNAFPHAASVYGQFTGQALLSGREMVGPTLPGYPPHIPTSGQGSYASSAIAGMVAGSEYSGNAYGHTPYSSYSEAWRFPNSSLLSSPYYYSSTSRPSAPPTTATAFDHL
ORF 73, sequence (O40947 whole entry): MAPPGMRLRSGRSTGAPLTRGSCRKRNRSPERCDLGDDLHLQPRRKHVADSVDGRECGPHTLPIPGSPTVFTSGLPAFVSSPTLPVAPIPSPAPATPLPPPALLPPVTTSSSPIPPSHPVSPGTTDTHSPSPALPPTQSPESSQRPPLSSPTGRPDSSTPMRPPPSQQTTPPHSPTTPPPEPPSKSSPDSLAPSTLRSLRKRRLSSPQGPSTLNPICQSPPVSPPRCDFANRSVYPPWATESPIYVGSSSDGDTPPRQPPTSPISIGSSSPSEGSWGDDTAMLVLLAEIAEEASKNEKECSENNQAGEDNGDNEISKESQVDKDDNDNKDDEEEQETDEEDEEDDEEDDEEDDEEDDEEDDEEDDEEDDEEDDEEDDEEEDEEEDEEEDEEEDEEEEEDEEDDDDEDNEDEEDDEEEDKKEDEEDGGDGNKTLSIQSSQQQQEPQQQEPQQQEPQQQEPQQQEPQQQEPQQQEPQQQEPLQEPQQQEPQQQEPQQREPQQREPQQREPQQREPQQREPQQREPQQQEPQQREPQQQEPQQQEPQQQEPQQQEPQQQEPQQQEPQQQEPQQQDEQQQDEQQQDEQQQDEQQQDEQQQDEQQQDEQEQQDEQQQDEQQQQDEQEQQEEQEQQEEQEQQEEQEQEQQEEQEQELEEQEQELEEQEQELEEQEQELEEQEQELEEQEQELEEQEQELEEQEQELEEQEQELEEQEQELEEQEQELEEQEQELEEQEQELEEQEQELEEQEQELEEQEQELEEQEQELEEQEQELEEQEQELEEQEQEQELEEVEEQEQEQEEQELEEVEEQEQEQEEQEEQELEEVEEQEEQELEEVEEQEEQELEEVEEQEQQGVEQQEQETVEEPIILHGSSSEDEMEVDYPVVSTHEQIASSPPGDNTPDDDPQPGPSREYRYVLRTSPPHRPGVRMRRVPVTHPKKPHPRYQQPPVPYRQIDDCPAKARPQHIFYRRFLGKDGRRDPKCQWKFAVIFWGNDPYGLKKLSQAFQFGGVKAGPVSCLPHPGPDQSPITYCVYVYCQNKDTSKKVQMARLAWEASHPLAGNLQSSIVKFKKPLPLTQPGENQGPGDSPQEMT

COc1cc2c(cc1NC(=O)c1cccc([N+](=O)[O-])c1C)oc1ccccc12
AC50 [1]: 2.65 µM (active) | AC50 [2]: 41.4 µM (active)

Cc1ccc2nc(NNC(=O)c3ccc(S(=O)(=O)N4CCc5ccccc5C4)cc3)sc2c1
AC50 [3]: 9.32 µM (active) | EC50 [4]: > 150 µM (not active) | AC50 [1]: 3.74 µM (active) | AC50 [5]: 1.62 µM (active) | IC50 [6]: 3.03 µM (active) | EC50 [7]: > 100 µM (inactive) | AC50 [8]: 31.1 µM (active) | AC50 [9]: 13.7 µM (active) | EC50 [10]: 3.65 µM (active) | AC50 [11]: 2.88 µM (active) | AC50 [12]: 14.8 µM (active) | AC50 [13]: 1.78 µM (active) | AC50 [14]: 18.3 µM (active) | AC50 [15]: 9.99 µM (active) | EC50 [16]: 13.5 µM (active) | IC50 [17]: 9.9 µM (active) | AC50 [18]: 39 µM (active) | AC50 [19]: 3.01 µM (active) | AC50 [20]: 5.81 µM (active) | AC50 [21]: 31.1 µM (active) | IC50 [22]: 52.7 µM (active) | AC50 [23]: 6.18 µM (active) | AC50 [24]: 19.5 µM (active) | EC50 [25]: 0.499 µM (active) | IC50 [26]: 2.7 µM (active) | EC50 [27]: > 150 µM (not active) | AC50 [28]: 8.28 µM (active) | EC50 [29]: 0.904 µM (active) | AC50 [30]: 2.17 µM (active) | EC50 [31]: > 350 µM (not active)

O=c1[nH]c2c(s1)C=Nc1ccccc1N2
IC50 [32]: 3.14 µM (active) | IC50 [33]: 2.26 µM (active) | AC50 [34]: 5.1 µM (active) | AC50 [35]: 9.53 µM (active) | EC50 [36]: 1.23 µM (inconclusive) | EC50 [27]: > 150 µM (not active) | EC50 [37]: > 112 µM (not active) | EC50 [38]: 2.6 µM (inconclusive) | EC50 [39]: > 260 µM (inactive)
